The source of these data is patent US20080058579A1, “Compositions and methods for treating disease utilizing a combination of radioactive therapy and cell-cycle inhibitors” (Angiotech International AG, priority 1999, published 2008).

This test relates to PC3 human prostate cells. Put plainly: In vivo treatment model using a locally administered cell cycle inhibitor with local radiation. The following applies: FIG. 16; for percent reduction in tumor volume: one week after treatment.

Text: This animal model is used to determine the effectiveness of a locally administered cell cycle inhibitor (e.g., paclitaxel) in conjunction with a locally administered radiation source in treating a proliferative disease, specifically, a cancer. The relative change in tumor volume measured in tumor bearing mice receiving various treatments will be used to gauge the therapy's effectiveness relative to use of local radiation alone or locally administered cell cycle inhibitor alone.
The methods used are as follows. Cancer cells (specifically PC3) human prostate cells, American Type Culture Collection, Rockville Md.) are maintained in DMEM solution with 5% heat-inactivated fetal calf serum. Male SCID mice are inoculated with approximately 1×10^6 cells subcutaneously in the flank region. The tumor injection sites are followed by visual inspection or palpation. Tumor volume is measured using calipers. The tumor is allowed to grow until it reaches a treatable volume of 100-200 mm^3.
At this time the mice are treated as follows. Approximately six brachytherapy seeds are implanted adjacent to the tumor to deliver a local radiation dose of 25-40 Gy (I^125 radiation source). A polymeric paste (100 μl) containing 50 μg paclitaxel (0.5% w/w) is injected subcutaneously adjacent to or into the tumor. The following treatment groups were studied (10 mice per group). 1) Control paste without paclitaxel and non-radioactive (cold) seeds. 2) Control paste and radioactive seeds. 3) 0.5% w/w paclitaxel loaded paste and cold seeds. 4) 0.5% w/w paclitaxel loaded paste and radioactive seeds.
Tumor size is measured at twice-weekly intervals using calipers. An investigator blinded to the experimental groups will conduct the measurements. Caliper measured dimensions may be taken in two (length (L), width (W)) or three dimensions (Height (H)). […]
The animal data are analyzed as follows. The means and standard deviations of the tumor measurements are determined and plotted from the initial day of caliper measurement until the final measurement. […]

Take `CC(=O)O[C@H]1C(=O)[C@@]2(C)[C@H]([C@H](OC(=O)c3ccccc3)[C@]3(O)C[C@H](OC(=O)[C@H](O)[C@@H](NC(=O)c4ccccc4)c4ccccc4)C(C)=C1C3(C)C)[C@]1(OC(C)=O)CO[C@@H]1C[C@@H]2O` [paclitaxel]: the tumor volume entry (one week after treatment with locally administered radiation (I-125) and locally administered paclitaxel, n=9 per treatment) is given as “decreased”. In addition, the “percent reduction in tumor volume” value is reported as “lesser reduction” (only one of the two treatments (paclitaxel alone)); “greatest” (paclitaxel paste (0.5% w/w) and I-125 seeds given in combination).
